EP0908457B1, “3-(1,2-benzisothiazol- and isoxazol-5-Y1)-2,4(1H,3H)-pyrimidinedione or thione and 3-(1,2-benzisothiazol- and isoxazol-5-y1)-4(3H)-pyrimidinone or thione herbicidal agents” (BASF AKTIENGESELLSCHAFT, priority 1997, dated 1999)

Columns and labels:
[1] = test system: Cyperus serotinus, Rottb.; experiment: Preemergence weed control under flooded paddy conditions, CYPSE (Flatsedge); format: in vivo; details: rated three to four weeks after treatment; also: meaning of each grade not given here
[2] = test system: Oryza sativa, (L.) Tebonnet; experiment: Rice tolerance to post-transplant applications under flooded paddy conditions (Example 188), ORYSAT (Rice, Tebonnet); details: rated three to four weeks after treatment
[3] = test system: Echinochloa oryzoides (Ard.) Fritsch.; experiment: Preemergence weed control under flooded paddy conditions, ECHORC (Watergrass (Calif.)); format: in vivo; details: flooded paddy, rated three to four weeks after treatment; also: meaning of each grade not given here
[4] = test system: Sagittaria pygmaea, L.; experiment: Preemergence weed control under flooded paddy conditions, SAGPY (Arrowhead (Pygmaea)); format: in vivo; details: flooded paddy, rated three to four weeks after treatment; also: meaning of each grade not given here
[5] = test system: Cyperus serotinus, Rottb.; experiment: Postemergence weed control under flooded paddy conditions, CYPSE (Flatsedge); format: in vivo; details: rated three to four weeks after treatment
[6] = test system: Sagittaria pygmaea, L.; experiment: Postemergence weed control under flooded paddy conditions, SAGPY (Arrowhead (Pygmaea)); format: in vivo; details: rated three to four weeks after treatment
[7] = test system: Cyperus iria; experiment: Preemergence weed control under flooded paddy conditions, CYPIR (Rice Flatsedge); format: in vivo; details: flooded paddy, rated three to four weeks after treatment; also: meaning of each grade not given here
[8] = test system: Cyperus iria; experiment: Postemergence weed control under flooded paddy conditions, CYPIR (Rice Flatsedge); format: in vivo; details: rated three to four weeks after treatment
[9] = test system: Oryza sativa, (L.) Tebonnet; experiment: Rice tolerance to post-transplant applications under flooded paddy conditions (Example 187), ORYSAT (Rice, Tebonnet); details: rated three to four weeks after treatment
[10] = test system: Monochoria vaginalis, Presl.; experiment: Preemergence weed control under flooded paddy conditions, MOOVA (Monochoria); format: in vivo; details: flooded paddy, rated three to four weeks after treatment; also: meaning of each grade not given here
[11] = test system: Monochoria vaginalis, Presl.; experiment: Postemergence weed control under flooded paddy conditions, MOOVA (Monochoria); format: in vivo; details: rated three to four weeks after treatment
[12] = test system: Echinochloa oryzoides (Ard.) Fritsch.; experiment: Postemergence weed control under flooded paddy conditions, ECHORC (Watergrass (Calif.)); format: in vivo; details: rated three to four weeks after treatment
[13] = Rate 0.0320 kg/ha, preemergence weeds
[14] = Rate 0.0620 kg/ha, preemergence weeds
[15] = Rate 0.1250 kg/ha, preemergence weeds
[16] = Rate 0.2500 kg/ha, preemergence weeds

COC(=O)COc1ccc(C)cc1-c1nsc2ccc(-n3c(=O)cc(C(F)(F)F)n(C)c3=O)cc12 [Example 2, Methyl {{2-{5-[3,6-dihydro-3-methyl-4-(trifluoromethyl)-2,6-dioxo-1(2H)-pyrimidinyl]-1,2-benzisothiazol-3-yl}-p-tolyl}oxy}acetate]
0.0: herbicidal effect rating, CYPSE ([1]; 0.0313 kg/ha, preemergence) | herbicidal effect rating, CYPSE ([1]; 0.0625 kg/ha, preemergence) | herbicidal effect rating, CYPSE ([1]; 0.1250 kg/ha, preemergence) | herbicidal effect rating, CYPSE ([1]; 0.2500 kg/ha, preemergence) | herbicidal effect rating, CYPSE ([1]; 0.5000 kg/ha, preemergence) | herbicidal effect rating, SAGPY ([4]; 0.0313 kg/ha, preemergence) | herbicidal effect rating, SAGPY ([4]; 0.0625 kg/ha, preemergence) | herbicidal effect rating, CYPSE ([5]; Rate 0.0313 kg/ha) | herbicidal effect rating, CYPSE ([5]; Rate 0.0625 kg/ha) | herbicidal effect rating, CYPSE ([5]; Rate 0.1250 kg/ha) | herbicidal effect rating, CYPSE ([5]; Rate 0.2500 kg/ha) | herbicidal effect rating, CYPSE ([5]; Rate 0.5000 kg/ha) | herbicidal effect rating, SAGPY ([6]; Rate 0.0313 kg/ha) | herbicidal effect rating, SAGPY ([6]; Rate 0.0625 kg/ha) | herbicidal effect rating, SAGPY ([6]; Rate 0.1250 kg/ha)
2.0: herbicidal effect rating, ORYSAT (rice tolerance) ([2]; Rate 0.0313 kg/ha) | herbicidal effect rating, ORYSAT (rice tolerance) ([2]; Rate 0.0625 kg/ha) | herbicidal effect rating, SAGPY ([4]; 0.1250 kg/ha, preemergence) | herbicidal effect rating, SAGPY ([6]; Rate 0.2500 kg/ha) | herbicidal effect rating, ORYSAT (rice tolerance) ([9]; 0.0313 kg/ha)
9.0: herbicidal effect rating, ECHORC ([3]; 0.0313 kg/ha, preemergence) | herbicidal effect rating, ECHORC ([3]; 0.0625 kg/ha, preemergence) | herbicidal effect rating, ECHORC ([3]; 0.1250 kg/ha, preemergence) | herbicidal effect rating, ECHORC ([3]; 0.2500 kg/ha, preemergence) | herbicidal effect rating, ECHORC ([3]; 0.5000 kg/ha, preemergence) | herbicidal effect rating, SAGPY ([4]; 0.5000 kg/ha, preemergence) | herbicidal effect rating, CYPIR ([7]; 0.0625 kg/ha, preemergence) | herbicidal effect rating, CYPIR ([7]; 0.1250 kg/ha, preemergence) | herbicidal effect rating, CYPIR ([7]; 0.2500 kg/ha, preemergence) | herbicidal effect rating, CYPIR ([7]; 0.5000 kg/ha, preemergence) | herbicidal effect rating, CYPIR ([8]; Rate 0.0313 kg/ha) | herbicidal effect rating, CYPIR ([8]; Rate 0.0625 kg/ha) | herbicidal effect rating, CYPIR ([8]; Rate 0.1250 kg/ha) | herbicidal effect rating, CYPIR ([8]; Rate 0.2500 kg/ha) | herbicidal effect rating, CYPIR ([8]; Rate 0.5000 kg/ha) | herbicidal effect rating, ORYSAT (rice tolerance) ([9]; 0.5000 kg/ha) | herbicidal effect rating, MOOVA ([10]; 0.0625 kg/ha, preemergence) | herbicidal effect rating, MOOVA ([10]; 0.1250 kg/ha, preemergence) | herbicidal effect rating, MOOVA ([10]; 0.2500 kg/ha, preemergence) | herbicidal effect rating, MOOVA ([10]; 0.5000 kg/ha, preemergence) | herbicidal effect rating, MOOVA ([11]; Rate 0.0313 kg/ha) | herbicidal effect rating, MOOVA ([11]; Rate 0.0625 kg/ha) | herbicidal effect rating, MOOVA ([11]; Rate 0.1250 kg/ha) | herbicidal effect rating, MOOVA ([11]; Rate 0.2500 kg/ha) | herbicidal effect rating, MOOVA ([11]; Rate 0.5000 kg/ha) | herbicidal effect rating, ECHORC ([12]; Rate 0.2500 kg/ha) | herbicidal effect rating, ECHORC ([12]; Rate 0.5000 kg/ha)
3.0: herbicidal effect rating, ORYSAT (rice tolerance) ([2]; Rate 0.1250 kg/ha) | herbicidal effect rating, ORYSAT (rice tolerance) ([9]; 0.0625 kg/ha) | herbicidal effect rating, ORYSAT (rice tolerance) ([9]; 0.1250 kg/ha)
8.0: herbicidal effect rating, ORYSAT (rice tolerance) ([2]; Rate 0.5000 kg/ha) | herbicidal effect rating, CYPIR ([7]; 0.0313 kg/ha, preemergence)
5.0: herbicidal effect rating, ORYSAT (rice tolerance) ([9]; 0.2500 kg/ha)
7.0: herbicidal effect rating, ORYSAT (rice tolerance) ([2]; Rate 0.2500 kg/ha) | herbicidal effect rating, MOOVA ([10]; 0.0313 kg/ha, preemergence) | herbicidal effect rating, ECHORC ([12]; Rate 0.1250 kg/ha)
4.0: herbicidal effect rating, SAGPY ([4]; 0.2500 kg/ha, preemergence) | herbicidal effect rating, SAGPY ([6]; Rate 0.5000 kg/ha) | herbicidal effect rating, ECHORC ([12]; Rate 0.0313 kg/ha) | herbicidal effect rating, ECHORC ([12]; Rate 0.0625 kg/ha)

CCOc1cccc(-c2nsc3ccc(-n4c(=O)cc(C(F)(F)F)n(C)c4=O)cc23)c1 [Example 327, 2,4(1H,3H)-Pyrimidinedione, 3-[3-(m-ethoxyphenyl)-1,2-benzisothiazol-5-yl]-1-methyl-6-(trifluoromethyl)-]
5.0: herbicidal effect rating, ORYSAT (rice tolerance) ([2]; Rate 0.1250 kg/ha)
7.0: herbicidal effect rating, ECHORC ([12]; Rate 0.0620 kg/ha)
1.0: herbicidal effect rating, CYPSE [1, 13]
9.0: herbicidal effect rating, CYPSE [1, 16] | herbicidal effect rating, ECHORC [3, 13] | herbicidal effect rating, ECHORC [3, 14] | herbicidal effect rating, ECHORC [3, 15] | herbicidal effect rating, ECHORC [3, 16] | herbicidal effect rating, CYPIR [7, 13] | herbicidal effect rating, CYPIR [7, 14] | herbicidal effect rating, CYPIR [7, 15] | herbicidal effect rating, CYPIR [7, 16] | herbicidal effect rating, CYPIR ([8]; Rate 0.0320 kg/ha) | herbicidal effect rating, CYPIR ([8]; Rate 0.0620 kg/ha) | herbicidal effect rating, CYPIR ([8]; Rate 0.1250 kg/ha) | herbicidal effect rating, CYPIR ([8]; Rate 0.2500 kg/ha) | herbicidal effect rating, MOOVA [10, 13] | herbicidal effect rating, MOOVA [10, 14] | herbicidal effect rating, MOOVA [10, 15] | herbicidal effect rating, MOOVA [10, 16] | herbicidal effect rating, MOOVA ([11]; Rate 0.0320 kg/ha) | herbicidal effect rating, MOOVA ([11]; Rate 0.0620 kg/ha) | herbicidal effect rating, MOOVA ([11]; Rate 0.1250 kg/ha) | herbicidal effect rating, MOOVA ([11]; Rate 0.2500 kg/ha) | herbicidal effect rating, ECHORC ([12]; Rate 0.0320 kg/ha) | herbicidal effect rating, ECHORC ([12]; Rate 0.1250 kg/ha) | herbicidal effect rating, ECHORC ([12]; Rate 0.2500 kg/ha)
4.0: herbicidal effect rating, ORYSAT (rice tolerance) ([2]; Rate 0.2500 kg/ha) | herbicidal effect rating, SAGPY ([6]; Rate 0.1250 kg/ha) | herbicidal effect rating, SAGPY ([6]; Rate 0.2500 kg/ha) | herbicidal effect rating ORYSAT ([9]; Rate 0.2500 kg/ha)
3.0: herbicidal effect rating, ORYSAT (rice tolerance) ([2]; Rate 0.0620 kg/ha) | herbicidal effect rating, SAGPY [4, 13] | herbicidal effect rating ORYSAT ([9]; Rate 0.0320 kg/ha)
5.5: herbicidal effect rating, CYPSE [1, 14] | herbicidal effect rating, CYPSE [1, 15] | herbicidal effect rating, SAGPY [4, 14] | herbicidal effect rating, SAGPY [4, 15]
3.5: herbicidal effect rating ORYSAT ([9]; Rate 0.1250 kg/ha)
0.0: herbicidal effect rating, CYPSE ([5]; Rate 0.0320 kg/ha) | herbicidal effect rating, CYPSE ([5]; Rate 0.0620 kg/ha) | herbicidal effect rating, CYPSE ([5]; Rate 0.1250 kg/ha) | herbicidal effect rating, SAGPY ([6]; Rate 0.0320 kg/ha) | herbicidal effect rating, SAGPY ([6]; Rate 0.0620 kg/ha)
7.5: herbicidal effect rating, SAGPY [4, 16]
2.0: herbicidal effect rating, ORYSAT (rice tolerance) ([2]; Rate 0.0320 kg/ha) | herbicidal effect rating, CYPSE ([5]; Rate 0.2500 kg/ha)
2.5: herbicidal effect rating ORYSAT ([9]; Rate 0.0620 kg/ha)
